Source: PubChem BioAssay AID256 (DTP/NCI, 2004)
Inconclusive results and toxic doses are left out. Rule for the calls: active = survival T/C of 150% or more; inactive = T/C below 125% in these data.

Tested on: CD2F1 mice, L1210 leukemia ip, survival T/C
Experiment: NCI In Vivo Anticancer Drug Screen. Data for tumor model L1210 Leukemia (intraperitoneal) in CD2F1 (CDF1) mice
Conditions: higher = longer survival
How it was run: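 Implant tumor; dose compound or vehicle; measure endpoint in both groups; report treated divided by control.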

[1] = endpoint: mean survival time, dose: 100.0 mg/kg/injection, schedule: Q01DX009 (ip), vehicle: saline with Tween-80
[2] = endpoint: mean survival time, dose: 100.0 mg/kg/injection, schedule: Q04DX003 (ip), vehicle: saline with Tween-80
[3] = endpoint: mean survival time, dose: 200.0 mg/kg/injection, schedule: Q01DX009 (ip), vehicle: saline with Tween-80
[4] = endpoint: mean survival time, dose: 200.0 mg/kg/injection, schedule: Q04DX003 (ip), vehicle: saline with Tween-80
[5] = endpoint: mean survival time, dose: 400.0 mg/kg/injection, schedule: Q01DX009 (ip), vehicle: saline with Tween-80
[6] = endpoint: mean survival time, dose: 400.0 mg/kg/injection, schedule: Q04DX003 (ip), vehicle: saline with Tween-80
[7] = endpoint: mean survival time, dose: 100.0 mg/kg/injection, schedule: Q01DX001 (ip), vehicle: saline with Tween-80
[8] = endpoint: mean survival time, dose: 200.0 mg/kg/injection, schedule: Q01DX001 (ip), vehicle: saline with Tween-80
[9] = endpoint: mean survival time, dose: 400.0 mg/kg/injection, schedule: Q01DX001 (ip), vehicle: saline with Tween-80

Measured: T/C

CCOC(=O)c1cc(-c2ccc(Cl)cc2)nc2c1ccc1ccccc12
inactive: endpoint: mean survival time, dose: 100.0 mg/kg/injection, schedule: Q01DX001 (ip), vehicle: saline 100 % of control | endpoint: mean survival time, dose: 200.0 mg/kg/injection, schedule: Q01DX001 (ip), vehicle: saline 96 % of control | endpoint: mean survival time, dose: 400.0 mg/kg/injection, schedule: Q01DX001 (ip), vehicle: saline 108 % of control

Cc1cccc(C)c1NC(=O)c1ccccc1O
inactive: [1] 98 % of control | [2] 101 % of control | [3] 97 % of control | [4] 96 % of control | [5] 100 % of control | [6] 102 % of control

CCCCCCCCCCCCCCC[N+]1(C)CCSCC1
inactive: endpoint: mean survival time, dose: 25.0 mg/kg/injection, schedule: Q01DX001 (ip), vehicle: saline with Tween-80 100 % of control | endpoint: mean survival time, dose: 50.0 mg/kg/injection, schedule: Q01DX001 (ip), vehicle: saline with Tween-80 95 % of control

Cc1ccc(N=Nc2c(N)nc(N)nc2N)cc1C
inactive: [2] 96 % of control | [4] 102 % of control | [6] 108 % of control

O=C1NC(=O)C2CCCCC12 (stereo not drawn)
inactive: [1] 100 % of control | [2] 97 % of control | [3] 95 % of control | [4] 101 % of control | [5] 95 % of control | [6] 95 % of control

Clc1ccccc1/C=N/N=C/c1ccccc1Cl
inactive: [7] 91 % of control | [8] 90 % of control | [9] 89 % of control

O=P(Oc1ccccc1)(Oc1ccccc1)C(Nc1ccccc1)c1ccccc1 (stereo not drawn)
inactive: [1] 88 % of control | [3] 97 % of control | [5] 89 % of control

Cc1ccc([Si](OO[Si](c2ccccc2)(c2ccccc2)c2ccc(C)cc2)(c2ccccc2)c2ccccc2)cc1
inactive: [1] 98 % of control | [2] 98 % of control | [3] 93 % of control | [4] 100 % of control | [5] 95 % of control | [6] 98 % of control

O=C(NC(Cc1ccc(I)cc1)C(=O)O)c1cccc(Br)c1 (stereo not drawn)
inactive: endpoint: median survival time, dose: 25.0 mg/kg/injection, schedule: Q01DX009 (ip), vehicle: Klucel (hydroxypropylcellulose) (HPC) 105 % of control | endpoint: median survival time, dose: 50.0 mg/kg/injection, schedule: Q01DX009 (ip), vehicle: Klucel (hydroxypropylcellulose) (HPC) 97 % of control | endpoint: median survival time, dose: 100.0 mg/kg/injection, schedule: Q01DX009 (ip), vehicle: Klucel (hydroxypropylcellulose) (HPC) 94 % of control | endpoint: median survival time, dose: 200.0 mg/kg/injection, schedule: Q01DX009 (ip), vehicle: Klucel (hydroxypropylcellulose) (HPC) 94 % of control

CCN(CC)CCC(CN(C)C)C(C)=O (stereo not drawn)
inactive: endpoint: mean survival time, dose: 75.0 mg/kg/injection, schedule: Q01DX001 (ip), vehicle: other 106 % of control | endpoint: mean survival time, dose: 150.0 mg/kg/injection, schedule: Q01DX001 (ip), vehicle: other 103 % of control | endpoint: mean survival time, dose: 300.0 mg/kg/injection, schedule: Q01DX001 (ip), vehicle: other 96 % of control

C(=N\Nc1nc2ccccc2s1)/c1ccccc1
inactive: endpoint: mean survival time, dose: 100.0 mg/kg/injection, schedule: Q04DX003 (ip), vehicle: Klucel (hydroxypropylcellulose) (HPC) 100 % of control | endpoint: mean survival time, dose: 200.0 mg/kg/injection, schedule: Q04DX003 (ip), vehicle: Klucel (hydroxypropylcellulose) (HPC) 105 % of control | endpoint: mean survival time, dose: 400.0 mg/kg/injection, schedule: Q04DX003 (ip), vehicle: Klucel (hydroxypropylcellulose) (HPC) 92 % of control

CCOC(=O)/C(C(C)=N)=C(\C)O
inactive: [7] 100 % of control | [1] 101 % of control | [8] 98 % of control | [3] 104 % of control | [9] 105 % of control

O=[N+]([O-])c1cc(S(=O)(=O)c2ccc(N3CCCCC3)c([N+](=O)[O-])c2)ccc1N1CCCCC1
inactive: [1] 91 % of control | [3] 97 % of control | [5] 95 % of control

CC/S(=N\S(=O)(=O)c1ccc(C)cc1)c1ccccc1 (stereo not drawn)
inactive: [2] 104 % of control | [4] 108 % of control | [6] 98 % of control

O=[n+]1ccn([O-])c2ccccc21
inactive: endpoint: mean survival time, dose: 100.0 mg/kg/injection, schedule: Q04DX002 (ip), vehicle: saline with Tween-80 111 % of control | endpoint: mean survival time, dose: 200.0 mg/kg/injection, schedule: Q04DX002 (ip), vehicle: saline with Tween-80 105 % of control

O=C1C=C(C2OC(CO)C(O)C2O)C(=O)N1 (stereo not drawn)
inactive: endpoint: mean survival time, dose: 5.0 mg/kg/injection, schedule: Q01DX009 (ip), vehicle: saline with Tween-80 106 % of control | endpoint: mean survival time, dose: 10.0 mg/kg/injection, schedule: Q01DX009 (ip), vehicle: saline with Tween-80 111 % of control | endpoint: mean survival time, dose: 20.0 mg/kg/injection, schedule: Q01DX009 (ip), vehicle: saline with Tween-80 111 % of control
